Experimental data as given in US8299093B2, “Small molecule inhibitors of retroviral assembly and maturation” (New York Blood Center, Inc., priority 2008, dated 2012).
Read-outs that look alike come from different tables or passages of the source.

What was measured:
[1] = system: HIV-1; assay: Inhibition of HIV-1 infectivity (p24 ELISA) in MT-2 cells, laboratory-adapted HIV-1 strains; format: cell-based; conditions: Human immunodeficiency virus 1, MT2, 96 h, MT-2 cells, p24 ELISA day 4
Description: AZT was used as a positive control in the infectivity assays. In brief, 1×10^4 MT-2 cells (lymphocytes) were infected with HIV-1 at 100 TCID50 (50% tissue culture infective dose, 0.01 MOI [multiplicity of infection]) in 200 μL RPMI 1640 medium containing 10% FBS in the presence or absence of small molecules at graded concentrations overnight. The culture supernatants were then removed and fresh media containing freshly prepared test compounds were added. On the fourth day post-infection, 100 μL of culture supernatants were collected from each well, mixed with equal volume of 5% TRITON X-100® and tested for p24 antigen by ELISA®.

[2] = XTT cytotoxicity assay in MT-2 cells; format: cell-based; conditions: human, cell type not given
Description: Briefly, for MT-2 cells, 100 μL of small molecule at graded concentrations was added to an equal volume of cells (5×10^4 cells/ml) in 96-well plates followed by incubation at 37° C. for 4 days, which ran parallel to the neutralization assay in MT-2 (except medium was added instead of virus). In the case of PBMC, 2.5×10^5 cells/mL were used and the cytotoxicity was measured after 7 days. After addition of XTT (PolySciences, Inc.), the soluble intracellular formazan was quantitated calorimetrically at 450 nm 4 hours later with a reference at 620 nm. The CC50 values were calculated.

[3] = read-out: IC50 (concentration that provides 50% inhibition of HIV-1 p24), Table 1, formula I
[4] = Table 1, formula I, read-out: CC50 (concentration that causes 50% cytotoxicity)
[5] = Table 2, formula II, read-out: CC50

| SMILES | IC50 [1, 3] | CC50 [2, 4] | IC50 ([1]; Table 2, formula II) | CC50 [2, 5] |
| --- | --- | --- | --- | --- |
| COc1ccc2cc(CN(Cc3ccc4c(c3)OCO4)C(=S)Nc3ccc(C)cc3)c(=O)[nH]c2c1 [NYAD-S2] | > 10 µM | > 10 µM |  |  |
| CCc1ccc2[nH]c(=O)c(CN(Cc3cccnc3)C(=S)NCC3CCCO3)cc2c1 (centres unmarked) [NYAD-S3] | > 10 µM | > 10 µM |  |  |
| Cc1cc(C)c2[nH]c(=O)c(CN(CCO)C(=S)Nc3ccc(F)cc3)cc2c1 [NYAD-S4] | > 10 µM | > 10 µM |  |  |
| COc1ccc2[nH]c(=O)c(CN(Cc3cccnc3)C(=S)Nc3ccc(F)cc3)cc2c1 [NYAD-S5] | > 10 µM | > 10 µM |  |  |
| Cc1ccc2[nH]c(=O)c(CN(Cc3ccco3)S(=O)(=O)c3ccc(Cl)cc3)cc2c1 [NYAD-S6-4] | < 10 µM | > 10 µM |  |  |
| Cc1ccc2[nH]c(=O)c(CN(Cc3ccco3)C(=O)c3ccc(Cl)c(Cl)c3)cc2c1 [NYAD-S6-6] | < 10 µM | > 10 µM |  |  |
| Cc1ccc2[nH]c(=O)c(CN(Cc3ccco3)C(=O)c3ccc(Cl)c(N4CCCCC4)c3)cc2c1 [NYAD-S6-8] | < 10 µM | > 10 µM |  |  |
| Cc1ccc2[nH]c(=O)c(CN(Cc3ccco3)C(=O)c3ccc(F)c(Cl)c3)cc2c1 [NYAD-S6-10] | < 10 µM | > 10 µM |  |  |
| Cc1ccc2[nH]c(=O)c(CN(Cc3ccco3)C(=O)c3ccc(F)c(C)c3)cc2c1 [NYAD-S6-19] | < 10 µM | > 10 µM |  |  |
| Cc1ccc2[nH]c(=O)c(CN(Cc3ccco3)C(=O)c3ccc(F)c(F)c3)cc2c1 [NYAD-S6-21] | < 10 µM | > 10 µM |  |  |
| Cc1cc(=O)n2c3ccccc3n(CC(O)CN3CCCC3)c2c1C#N (centres unmarked) [NYAD-S9] |  |  | > 10 µM | > 10 µM |
| Cc1cc(=O)n2c3ccccc3n(CC(O)CNc3ccccc3)c2c1C#N (centres unmarked) [NYAD-S10] |  |  | > 10 µM | > 10 µM |
| Cc1cc(=O)n2c3ccccc3n(CC(O)CN3CCCCC3)c2c1C#N (centres unmarked) [NYAD-S12] |  |  | > 10 µM | > 10 µM |
| Cc1cc(=O)n2c3ccccc3n(CC(O)CN3CCOCC3)c2c1C#N (centres unmarked) [NYAD-S13] |  |  | > 10 µM | > 10 µM |
| Cc1ccccc1N1CCN(CC(O)Cn2c3ccccc3n3c(=O)cc(C)c(C#N)c23)CC1 (centres unmarked) [NYAD-S14] |  |  | > 10 µM | > 10 µM |
| Cc1cc(=O)n2c3ccccc3n(CC(O)Cn3ccnc3)c2c1C#N (centres unmarked) [NYAD-S15] |  |  | > 10 µM | > 10 µM |
| Cc1cc(=O)n2c3ccccc3n(CC(O)CN3CCN(CCOc4ccc(Cl)cc4)CC3)c2c1C#N (centres unmarked) [NYAD-S16] |  |  | < 10 µM | > 10 µM |
| Cc1cc(=O)n2c3ccccc3n(CC(O)CN3CCN(CCO)CC3)c2c1C#N (centres unmarked) [NYAD-S18] |  |  | > 10 µM | > 10 µM |
| COc1ccc(CCNCC(O)Cn2c3ccccc3n3c(=O)cc(C)c(C#N)c23)cc1OC (centres unmarked) [NYAD-S19] |  |  | > 10 µM | > 10 µM |
| CCC(=O)N(Cc1ccco1)Cc1cc2cc(C)ccc2[nH]c1=O [NYAD-S20] | > 10 µM | > 10 µM |  |  |
| Cc1cccc2cc(CN(Cc3ccco3)C(=O)c3ccccc3)c(=O)[nH]c12 [NYAD-S21] | < 10 µM | > 10 µM |  |  |
| Cc1cccc2cc(CN(Cc3ccccc3)C(=O)c3ccco3)c(=O)[nH]c12 [NYAD-S22] | > 10 µM | > 10 µM |  |  |
| Cc1cccc2cc(CN(Cc3ccco3)C(=O)c3ccc(C(C)(C)C)cc3)c(=O)[nH]c12 [NYAD-S23] | > 10 µM | > 10 µM |  |  |
| CCOc1ccc(C(=O)N(Cc2ccco2)Cc2cc3ccc(C)cc3[nH]c2=O)cc1 [NYAD-S24] | > 10 µM | > 10 µM |  |  |
| Cc1cccc2cc(CN(Cc3ccco3)C(=O)c3cccs3)c(O)nc12 [NYAD-S25] | > 10 µM | > 10 µM |  |  |
| Cc1cccc(C(=O)N(Cc2ccco2)Cc2cc3cccc(C)c3[nH]c2=O)c1 [NYAD-S26] | > 10 µM | > 10 µM |  |  |
| Cc1ccc2cc(CN(Cc3ccco3)C(=O)c3ccccc3)c(=O)[nH]c2c1 [NYAD-S27] | > 10 µM | > 10 µM |  |  |
| Cc1ccc2cc(CN(Cc3ccco3)C(=O)c3ccc(F)cc3)c(=O)[nH]c2c1 [NYAD-S28] | > 10 µM | > 10 µM |  |  |
